From BindingDB's records for patent US9212173 (Genentech, 2015)

Molecular target: Leucine-rich repeat serine/threonine-protein kinase 2 (Homo sapiens, UniProt Q5S007)
Assay: Lanthascreen Binding Assay
Method: This assay was used to determine a compound's potency in inhibiting activity of LRRK2 by determining, Kiapp, IC50, or percent inhibition values. In 384 well proxiplates F black, shallow well plates LRRK2, Eu-anti-GST-antibody, Alexa Fluor Kinase tracer 236 and test compound were incubated together.Binding of the Alexa Fluor tracer to a kinase is detected by addition of a Eu-labeled anti-GST antibody. Binding of the tracer and antibody to a kinase results in a high degree of FRET, whereas displacement of the tracer with a kinase inhibitor results in a loss of FRET. Assay conditions and materials used were as follows: Final Assay Conditions: GST-LRRK2 G2019S 10 nM Eu-anti-GST-antibody 2 nM Kinase tracer 236 8.5 nM Kinase reaction time: 1 hour Temperature: ambient Total volume: 15 ul DMSO 1% Materials: 384 well proxiplates F black shallow cat# 6008260 well Perkin Elmer Kinase: LRRK2 G2019S, Invitrogen cat # PV4882(LOT 567054A).

Sequence of Leucine-rich repeat serine/threonine-protein kinase 2 (Q5S007 whole entry): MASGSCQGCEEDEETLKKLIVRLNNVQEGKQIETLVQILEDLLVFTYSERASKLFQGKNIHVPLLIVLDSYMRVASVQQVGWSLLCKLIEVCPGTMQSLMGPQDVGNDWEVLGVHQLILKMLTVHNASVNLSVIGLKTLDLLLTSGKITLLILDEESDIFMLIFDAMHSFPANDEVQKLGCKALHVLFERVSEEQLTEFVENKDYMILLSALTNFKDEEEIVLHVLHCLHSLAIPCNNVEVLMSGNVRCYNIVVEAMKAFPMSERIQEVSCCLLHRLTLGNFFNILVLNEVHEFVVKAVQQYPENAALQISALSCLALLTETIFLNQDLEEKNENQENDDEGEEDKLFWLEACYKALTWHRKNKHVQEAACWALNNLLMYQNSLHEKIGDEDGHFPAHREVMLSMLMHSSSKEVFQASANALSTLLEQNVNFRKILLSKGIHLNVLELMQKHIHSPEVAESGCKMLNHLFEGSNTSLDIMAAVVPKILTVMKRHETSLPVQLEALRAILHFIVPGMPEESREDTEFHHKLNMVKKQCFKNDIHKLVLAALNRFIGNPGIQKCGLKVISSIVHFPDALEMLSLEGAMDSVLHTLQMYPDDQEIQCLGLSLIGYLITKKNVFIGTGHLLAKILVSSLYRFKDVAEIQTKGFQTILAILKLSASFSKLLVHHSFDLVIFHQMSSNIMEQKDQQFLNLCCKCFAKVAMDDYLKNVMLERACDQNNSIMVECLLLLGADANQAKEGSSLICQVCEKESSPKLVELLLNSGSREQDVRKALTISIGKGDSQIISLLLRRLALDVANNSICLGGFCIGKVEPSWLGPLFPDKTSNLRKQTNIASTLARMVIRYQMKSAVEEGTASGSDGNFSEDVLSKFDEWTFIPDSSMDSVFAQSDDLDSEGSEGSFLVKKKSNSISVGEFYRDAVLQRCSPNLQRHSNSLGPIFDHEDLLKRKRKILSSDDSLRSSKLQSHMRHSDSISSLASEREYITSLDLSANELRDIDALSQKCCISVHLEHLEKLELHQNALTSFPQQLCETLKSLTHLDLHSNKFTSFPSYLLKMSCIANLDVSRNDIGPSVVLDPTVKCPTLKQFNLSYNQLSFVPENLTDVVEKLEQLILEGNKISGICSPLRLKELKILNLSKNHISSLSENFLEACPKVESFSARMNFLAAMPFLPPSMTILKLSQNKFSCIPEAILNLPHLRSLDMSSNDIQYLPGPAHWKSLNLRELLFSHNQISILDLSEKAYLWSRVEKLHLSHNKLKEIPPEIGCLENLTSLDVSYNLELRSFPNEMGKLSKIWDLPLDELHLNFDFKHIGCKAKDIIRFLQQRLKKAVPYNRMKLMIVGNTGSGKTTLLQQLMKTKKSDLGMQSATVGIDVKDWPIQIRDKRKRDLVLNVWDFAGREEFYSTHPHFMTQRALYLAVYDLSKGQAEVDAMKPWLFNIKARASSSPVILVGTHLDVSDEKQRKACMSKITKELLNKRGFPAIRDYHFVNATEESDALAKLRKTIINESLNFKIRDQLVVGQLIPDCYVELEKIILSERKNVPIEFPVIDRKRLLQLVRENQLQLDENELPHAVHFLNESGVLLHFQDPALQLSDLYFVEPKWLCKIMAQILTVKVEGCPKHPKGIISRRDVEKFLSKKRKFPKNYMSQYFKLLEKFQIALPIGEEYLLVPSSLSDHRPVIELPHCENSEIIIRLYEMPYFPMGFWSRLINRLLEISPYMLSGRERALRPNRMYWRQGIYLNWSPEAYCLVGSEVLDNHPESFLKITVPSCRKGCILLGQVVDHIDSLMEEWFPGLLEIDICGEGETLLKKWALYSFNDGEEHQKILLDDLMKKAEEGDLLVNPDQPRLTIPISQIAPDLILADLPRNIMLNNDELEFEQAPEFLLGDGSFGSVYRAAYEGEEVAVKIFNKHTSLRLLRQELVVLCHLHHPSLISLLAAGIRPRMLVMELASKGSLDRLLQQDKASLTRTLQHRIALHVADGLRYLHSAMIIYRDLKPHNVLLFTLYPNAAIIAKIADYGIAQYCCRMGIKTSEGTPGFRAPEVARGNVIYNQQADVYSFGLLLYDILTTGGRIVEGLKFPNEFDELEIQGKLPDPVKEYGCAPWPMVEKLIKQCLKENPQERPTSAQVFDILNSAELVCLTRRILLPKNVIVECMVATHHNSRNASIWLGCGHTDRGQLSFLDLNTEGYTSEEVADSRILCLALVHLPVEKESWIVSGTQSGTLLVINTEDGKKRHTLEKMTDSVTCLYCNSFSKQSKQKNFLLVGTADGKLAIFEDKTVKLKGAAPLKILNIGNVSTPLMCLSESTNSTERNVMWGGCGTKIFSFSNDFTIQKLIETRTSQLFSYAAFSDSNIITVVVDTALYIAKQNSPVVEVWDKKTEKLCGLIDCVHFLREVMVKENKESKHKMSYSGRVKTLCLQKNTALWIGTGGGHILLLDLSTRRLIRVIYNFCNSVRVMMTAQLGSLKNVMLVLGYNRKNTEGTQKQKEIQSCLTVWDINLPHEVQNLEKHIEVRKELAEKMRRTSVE

Structure (SMILES) | Ki [nM]
CCNc1nc(Nc2cn(C(C)(C)c3ncn(CC)n3)nc2Cl)ncc1C(F)(F)F [US9212173, 14] | 1.1
CCn1cnnc1C(C)(C)n1cc(Nc2ncc(C(F)(F)F)c(NC)n2)c(Cl)n1 [US9212173, 11] | 155
